Test results reported in patent US20050222225A1, “Use of compounds for increasing spermatozoa motility” (APPLIED RESEARCH SYSTEMS ARS HOLDING NV, priority 2002, published 2005).

Tests used:
[1] = system: C5a-mediated AKT phosphorylation in Raw 264-7 macrophages; experiment: Cell based ELISA: Akt/PKB phosphorylation in macrophages after stimulation with C5a; conditions: Mus musculus, 50 nM C5a; for inhibition at 1 µM: RAW264.7, compound at 1 μM; for inhibition at 10 µM: RAW264.7, compound at 10 μM
Protocol: b) Cell Based ELISA to Monitor PI3K Inhibition: Measurement of Akt/PKB phosphorylation in macrophages after stimulation with C5a: Raw 264: Raw 264-7 macrophages (cultured in DMEM-F12 medium containing 10% Fetal Calf serum and antibiotics) are plated at 20'000 cells/well in a 96 MTP 24 h before cell stimulation. Previous to the stimulation with 50 nM of Complement 5a (C5a; which is a well known chemokine which stimulates the used cells) during 5 minutes, Cells are serum starved for 2 h, and pretreated with inhibitors for 20 minutes. After stimulation cells are fixed in 4% formaldehyde for 20 minutes and washed 3 times in PBS containing 1% Triton X-100 (PBS/Triton). Endogenous peroxidase is blocked by a 20 minutes incubation in 0.6% H2O2 and 0.1% Sodium Azide in PBS/Triton and washed 3 times in PBS/Triton. Cells are then blocked by 60 minutes incubation with 10% fetal calf serum in PBS/Triton. Next, phosphorylated Akt/PKB is detected by an overnight incubation at 4° C. with first antibody (anti phospho Serine 473 Akt IHC, Cell Signaling) diluted 800-fold in PBS/Triton, containing 5% bovine serum albumin (BSA). After 3 washes in PBS/Triton, cells are incubated for 60 minutes with a peroxidase conjugated goat-anti-rabbit antibody (1/400 dilution in PBS/Triton, containing 5% BSA), washed 3 times in PBS/Triton, and 2 times in PBS and further incubated in 100 μl of substrate reagent solution (R&D) for 20 minutes. The reaction is stopped by addition of 50 μl of 1 M H2SO4 and absorbance is read at 450 nm. The values indicated reflect the percentage of inhibition of AKT phoshorylation as compared to basal level. Said values show a clear effect of the azolidinone-vinyl fused-benzene compounds on the activation of AKT phosphorylation in macrophages.

[2] = system: spermatozoa; experiment: Sperm cell parameters by computer aided sperm analysis (CASA); format: cell-based, human; conditions: 10 μM; sperm samples from oligo-asthenospermic subjects; vs control sample
From the text: In the experiments the following examples are based on, standard methods of in vitro fertilization have been used. With regard to the details of these methods, reference is made to the “WHO manual” (WHO laboratory manual for the examination of human semen and sperm-cervical mucus interactions, 4th edition, Cambridge University Press 1999). In particular, the direct swim-up method can be taken from pp. 104 to 106 of this manual.
b) Effect of Example 1 Compound on Further Sperm Cell Parameters:
These parameters are determined by computer aided sperm analysis (CASA) in sperm samples from different oligo-asthenospermic subjects.

[3] = target: Human recombinant GST-PI3Kγ (Homo sapiens, UniProt P48736); experiment: High Throughput PI3K Lipid Kinase Assay (scintillation proximity assay, neomycin-coated beads); format: biochemical
Protocol: A. a) High Throughput PI3K Lipid Kinase Assay (Binding Assay):
The assay combines the scintillation proximity assay technology (SPA, Amersham) with the capacity of neomycin (a polycationic antibiotic) to bind phospholipids with high affinity and specificity. The Scintillation Proximity Assay is based on the properties of weakly emitting isotopes (such as ^3H, ^125I, ^33P). Coating SPA beads with neomycin allows the detection of phosphorylated lipid substrates after incubation with recombinant PI3K and radioactive ATP in the same well, by capturing the radioactive phospholipids to the SPA beads through their specific binding to neomycin.
To a 384 wells MTP containing 5 μl of the test compound of formula (I) (solubilized in 6% DMSO; to yield a concentration of 100, 30, 10, 3, 1, 0.3, 0.1, 0.03, 0.01, 0.001 μM of the test compound), the following assay components are added. 1) 5 μl (58 ng) of Human recombinant GST-PI3Kγ (in Hepes 40 mM, pH 7.4, DTT 1 mM and ethylenglycol 5%) 2) 10 μl of lipid micelles and 3) 10 μl of Kinase buffer ([^33P]ATP 45 μM/60 nCi, MgCl2 30 mM, DTT 1 mM, β-Glycerophosphate 1 mM, Na3VO4 100 μM, Na Cholate 0.3%, in Hepes 40 mM, pH 7.4). […] After precipitation of the neomycin-coated PVT SPA beads for 5 minutes at 1500×g, radioactive PtdIns(3)P is quantified by scintillation counting in a Wallac MicroBeta™ plate counter. […]

Sequence of Human recombinant GST-PI3Kγ (P48736 whole entry): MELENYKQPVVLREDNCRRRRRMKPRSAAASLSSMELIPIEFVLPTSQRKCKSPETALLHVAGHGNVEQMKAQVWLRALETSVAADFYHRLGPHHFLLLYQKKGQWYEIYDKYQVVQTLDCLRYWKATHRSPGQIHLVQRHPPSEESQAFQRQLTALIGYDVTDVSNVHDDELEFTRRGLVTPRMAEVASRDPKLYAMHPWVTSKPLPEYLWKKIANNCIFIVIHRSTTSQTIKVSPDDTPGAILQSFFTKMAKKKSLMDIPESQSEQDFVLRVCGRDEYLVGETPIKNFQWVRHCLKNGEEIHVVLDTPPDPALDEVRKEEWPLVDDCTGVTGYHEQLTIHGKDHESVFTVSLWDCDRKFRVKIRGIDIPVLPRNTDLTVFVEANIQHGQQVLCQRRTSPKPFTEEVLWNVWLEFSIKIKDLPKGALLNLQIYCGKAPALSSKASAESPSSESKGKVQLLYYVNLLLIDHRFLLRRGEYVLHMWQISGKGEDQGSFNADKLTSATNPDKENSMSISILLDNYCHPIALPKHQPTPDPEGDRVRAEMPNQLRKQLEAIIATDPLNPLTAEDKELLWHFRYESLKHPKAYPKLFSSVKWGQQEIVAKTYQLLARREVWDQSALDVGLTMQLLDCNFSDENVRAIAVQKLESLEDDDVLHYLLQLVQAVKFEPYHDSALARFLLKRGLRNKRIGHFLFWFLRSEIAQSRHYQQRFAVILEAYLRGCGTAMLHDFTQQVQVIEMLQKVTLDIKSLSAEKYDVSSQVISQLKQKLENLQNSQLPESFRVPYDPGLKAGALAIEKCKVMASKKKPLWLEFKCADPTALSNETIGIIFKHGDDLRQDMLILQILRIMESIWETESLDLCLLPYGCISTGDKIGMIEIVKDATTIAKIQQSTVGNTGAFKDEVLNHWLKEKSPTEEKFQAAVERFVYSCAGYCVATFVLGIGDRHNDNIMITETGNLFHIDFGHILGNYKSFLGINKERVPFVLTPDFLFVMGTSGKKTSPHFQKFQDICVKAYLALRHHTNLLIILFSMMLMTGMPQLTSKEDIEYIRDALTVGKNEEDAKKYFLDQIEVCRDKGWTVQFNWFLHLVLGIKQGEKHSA

SMILES | inhibition at 1 µM [1] [%] | inhibition at 10 µM [1] [%] | other results
CN(C)c1ncnc2ccc(/C=C3\SC(=O)NC3=O)cc12 [Example 17, 5-(4-Dimethylamino-quinazolin-6-ylmethylene)-thiazolidine-2,4-dione] | 95 | – | –
O=C1NC(=O)/C(=C/c2ccc3c(c2)OCO3)S1 [Example 1, 5-(1,3-benzodioxol-5-ylmethylene)-1,3-thiazolidine-2,4-dione] | – | ~100 | average path velocity (VAP) [2]: increased in a statistically significant manner; hyper-activated sperm fraction (HA) [2]: increased in a statistically significant manner; percentage curvilinear velocity (VCL) [2]: increased in a statistically significant manner; straight-line velocity (VSL) [2]: increased in a statistically significant manner
O=C1NC(=O)/C(=C/c2ccc3nsnc3c2)S1 [Example 107, 5-Benzo[1,2,5]thiadiazol-5-ylmethylene-thiazolidine-2,4-ione] | – | ~100 | IC50 [3]: < 1000 nM
O=C1NC(=O)C(=Cc2ccc3ncnc(N4CCCCC4)c3c2)S1 [Example 19, 5-[(4-piperidin-1-ylquinazolin-6-yl)methylene]-1,3-thiazolidine-2,4-dione] | 95 | ~100 | –
N=C1NC(=O)/C(=C/c2ccc3ncnc(N4CCCCC4)c3c2)S1 [Example 41, 2-Imino-5-(4-piperidine-quinazolin-6-ylmethylene)-thiazolidin-4-one] | – | – | IC50 [3]: < 1000 nM
N=C1NC(=O)/C(=C/c2ccc3nccnc3c2)S1 [Example 66, 2-Imino-5-quinoxalin-6-ylmethylene-thiazolidin-4-one] | – | ~100 | –
O=C1NC(=O)/C(=C/c2ccc3occ(/C=C/C(=O)N4CCCCC4)c3c2)S1 [Example 73, 5-[3-(3-Oxo-3-piperidin-1-yl-propenyl)-benzofuran-5-ylmethylene]-thiazolidine-2,4-dione] | 95 | – | –
